Key:
[1] = test system: Lenzites trabea (ATCC 11539); assay: minimum fungicidal concentration; assay type: cell-based; settings: ppm of active ingredient; "1" means 1 or fewer
[2] = test system: Candida albicans (ATCC 10259); assay: minimum fungicidal concentration; assay type: cell-based; settings: ppm of active ingredient; "1" means 1 or fewer
[3] = test system: human skin; assay: skin irritation on human subjects; assay type: in vivo; settings: undiluted on hands
Experimental: These compositions were tested for skin irritation by rubbing 2 ml of each onto the hands of six test subjects. After 60 seconds, Compositions A, B and C were rinsed off the hands with water. […] The results with Compositions D and E were observably different.
The two compositions were tested for skin irritation by placing two drops of one composition on the skin at the inside of one elbow of five test subjects and two drops of the other composition on the same spot on the other elbow of each subject. In all cases, the composition was smeared over about a one-half square inch of skin and the subjects' reactions were noted over a 20-minute test period.
The compositions were tested on three subjects for skin irritation by spreading two drops of each composition over a one square inch area of skin just below one eye of each test subject and the other composition on the same spot beneath the other eye.

[4] = test system: Penicillium brevi compactum (ATCC 16024); settings: ppm of active ingredient; "1" means 1 or fewer
[5] = test system: Aspergillis terreus (ATCC 10609); assay: minimum fungicidal concentration; assay type: cell-based; settings: ppm of active ingredient; "1" means 1 or fewer
[6] = test system: Trichoderma viride (ATCC 8678); settings: ppm of active ingredient; "1" means 1 or fewer
[7] = test system: Ceratocystis pilifera; assay: sugar cane pineapple disease emergence test; assay type: in vivo; settings: 56 days
Experimental: The following composition was prepared and evaluated for control of pineapple disease of sugar cane (Ceratocystis pilifera):
Sugar cane seed was treated with this solution as diluted with a water carrier. Seed also was treated with benomyl, thiophanate methyl, Panoctine (9-aza-1,17-diquanidinoheptadecane triacetate), hot water and cold water. The results are tabulated below:
(2) Prior to planting, the seed was inoculated with the causal disease
organism, Ceratocystis pilifera. Emergence data was collected 56 days

[8] = test system: fungi; assay: antifungal efficacy of formulated phenolics; settings: formulated per invention vs conventional
Text: The antifungal efficacy of these phenolics is improved by formulation in accordance with this invention.

[9] = test system: bean rust (Uromyces phaseoli typica); assay: foliar spray on beans; assay type: in vivo; settings: 33 ppm active; 0 no pathogen control to 10 complete
Text: (§1) The composition of Example 23 was screened for fungal pathogen response as a foliar spray on beans and rice. The rating scale is from 0 (no pathogen control) to 10 (complete pathogen control). The concentration of active ingredient (in a water carrier) of all compositions tested is 33 parts per million (ppm). The active ingredient in the composition of Example […] is expressed in terms of Cu-8-Q and the chemical as listed below for four comparative products. The comparative products tested were Karathane (2,4-dimitro-6-(2-octyl phenyl crotonate), Vitavax (5,6-dihydro-2-methyl-1,4-oxathiin-3-carboxanilide), Daconil (tetrachloroisophthalonitrile) and Maneb (manganese ethylenebisdithiocarbamate). The plants and diseases tested were bean mildew (Erysiphe polygoni), bean rust (Uromyces phaseoli typica) and rice spot (Helminthosporium orazae and Cerocospora orazae).
(§2) The rating scale is from 0 (no pathogen control) to 10 (complete pathegon control). The concentration of active ingredient (in a water carrier) of all compositions tested is 33 parts per million (ppm). The active ingredient in the composition of Example 4 is expressed in terms of Cu-8-Q and the chemical as listed below for four comparative products. […]

[10] = test system: rice spot (Helminthosporium orazae and Cerocospora orazae); assay type: in vivo; settings: 33 ppm active; 0 no pathogen control to 10 complete
[11] = test system: rice seedling emergence; assay type: in vivo
[12] = test system: Athlete's Foot; assay: Athlete's Foot treatment; assay type: in vivo, human; settings: one case; Toluaftate 1% twice daily for eight days
Text: The second formulation in the preceding Example was applied once daily by eight test subjects to the skin between the toes for control of "Athlete's Foot". […] Two of the cases had previously resisted control with several over-the-counter brand name antifungals. One of the two, a virulent infection, had reached the bleeding stage from deeply cracked skin and a bacterial infection started, despite twice daily application for eight days of a 1% solution of Toluaftate which has gained broad recognition for effective control of "Athlete's Foot".

[13] = test system: fungal stain and mold growth; assay: fungal stain and mold growth on dip-treated fresh-cut pine boards; settings: 28 days
Experimental: In the examples that follow, the effectiveness of the various formulations was determined by treating freshly cut pine boards by dip immersion for 10 seconds in the formulation to be tested. The boards, along with an untreated control, were placed in a chamber for the period of time indicated and maintained at a temperature of about 80° F. and a humidity of about 70%.
At the end of the test period, the boards were removed from the chamber and rated for effectiveness in terms of percentage of total surface area covered by fungal stain and mold growth. Accordingly, the lower the percentage, the higher the effectiveness of the test formulation. […]
As further evidence of the effectiveness of antimicrobials prepared in accordance with this invention, a number of tests were conducted utilizing DDBSA as the disubstituted aryl compound of this invention as a solution with the below-listed microbicidal agents. […] Fresh-cut green pine test boards were dip-treated and evaluated for stain and mold after 30 days in the aforementioned constant atmosphere test chamber:
These compositions were diluted 1:200 with a water carrier for use, and freshly cut pine boards were dip immersed in the formulation to be tested. […] After the test period, the specimen boards were evaluated in terms of percentage of total surface area covered by fungal stain and mold growth.

[14] = test system: bean mildew (Erysiphe polygoni); assay: foliar spray on beans; assay type: in vivo; settings: 33 ppm active; 0 no pathogen control to 10 complete
Text: as §1, §2

[15] = test system: P. aeruginosa; settings: reference tests and manufacturer's literature; cited from earlier work

## CCCCCCCCCCCCc1ccc(S(=O)(=O)O)cc1 [DDBSA, dodecyl benzene sulfonic acid]
[1]
  Minimum Fungicidal Concentration: 100 ppm
[2]
  Minimum Fungicidal Concentration: 1,000 ppm
[3]
  skin sensation: almost immediate warm and uncomfortable sensation
[4]
  Minimum Fungicidal Concentration: 100 ppm
[5]
  Minimum Fungicidal Concentration: 100 ppm
[6]
  Minimum Fungicidal Concentration: 100 ppm

## N=C(N)NCCCCCCCCNCCCCCCCCNC(=N)N [Panoctine, 9-aza-1,17-diquanidinoheptadecane triacetate]
[7]; 50 ppm active
  % Emergency, Inoculated: 48%
[7]; 100 ppm active
  % Emergency, Inoculated: 48%
[7]; 200 ppm active
  % Emergency, Inoculated: 53%

## CCCCNC(=O)n1c(NC(=O)OC)nc2ccccc21 [Benomyl, benomyl]
[7]; 150 ppm active
  % Emergency, Inoculated: 50%

## COC(=O)NC(=S)Nc1ccccc1NC(=S)NC(=O)OC [Thiophanate methyl, thiophanate methyl]
[7]; 50 ppm active
  % Emergency, Inoculated: 55%
[7]; 150 ppm active
  % Emergency, Inoculated: 51%
[7]; 300 ppm active
  % Emergency, Inoculated: 49%

## Oc1c(Cl)c(Cl)c(Cl)c(Cl)c1Cl [pentachlorophenol]
[8]
  antifungal efficacy improvement: significantly higher than would be expected

## CC1=C(C(=O)Nc2ccccc2)SCCO1 [Vitavax, 5,6-dihydro-2-methyl-1,4-oxathiin-3-carboxanilide]
[9]
  Bean Rust rating: 9

## N#Cc1c(Cl)c(Cl)c(Cl)c(C#N)c1Cl [Daconil, tetrachloroisophthalonitrile]
[10]
  Rice Spot rating: 10

## CC1=C(C(=O)Nc2ccccc2)SCCO1 [PRODUCT D, 5,6dihydro-2-methyl-1,4-oxathiim-3-carboxanilide]
[11]; 4 ounces/cwt, thirteen test plots
  Improvement over Control: 12.3%
[11]; in vivo
  Performance Consistency: 71.3

## Oc1ccccc1-c1ccccc1 [Orthophenyl phenol]
[8]
  antifungal efficacy improvement: significantly higher than would be expected

## tetrachlorophenol
[8]
  antifungal efficacy improvement: significantly higher than would be expected

## Cc1cccc(N(C)C(=S)Oc2ccc3ccccc3c2)c1 [Toluaftate]
[12]
  control of resistant Athlete's Foot and bacterial infection: failed to control

## Oc1cc(Cl)cc(Cl)c1Cl [2,3,5-trichlorophenol]
[8]
  antifungal efficacy improvement: significantly higher than would be expected

## OB(O)O [Orthoboric acid]
[13]; 0.25% in water
  % Stain and Mold: 86%
[13]; 0.50% in water
  % Stain and Mold: 62%

## CC=CC(=O)Oc1c(C(C)CCCCCC)cc([N+](=O)[O-])cc1[N+](=O)[O-] (stereo not drawn) [Karathane, 2,4-dimitro-6-(2-octylphenyl crotonate]
[14]
  Bean Mildew rating: 10

## manganese ethylenebisdithiocarbamate [Maneb]
[10]
  Rice Spot rating: 8

## Oc1ccc(Cl)cc1-c1ccccc1 [4-chloro-2-phenyl phenol]
[15]
  phenol coefficient: less than 10
